Reference: patent US10295528B2, “Method of screening ATP11C or CDC50A inhibitor” (KYOTO UNIVERSITY, priority 2014, dated 2019)

Columns and labels:
ATP11C = assay: FasL-induced ATP11C cleavage in W3 cells, Western blotting with anti-mATP11C; assay type: cell-based, mouse; conditions: 1 h FasL, 20 μM QVD-Oph, membrane fractions
Method: FIG. 3D Cleavage of ATP11C by caspase (D). W3 and ATP11C^ED22 were incubated for 1 h with FasL in the presence or absence of 20 μM QVD-Oph. Membrane fractions were analyzed by Western blotting with anti-mATP11C or anti-mFas. Upper and middle panels: the blot with anti-mATP11C, where exposure time is longer in the middle panel.
Cells or membrane fractions were lysed in RIPA buffer ([…] (pH 8.0) containing 1% MP-40, 0.1% SDS, 0.5% sodium deoxycholate, 150 mM NaCl, and a cocktail of protease inhibitors (cOmplete, Mini, EDTA-free, Roche Diagnostics)). After removing insoluble materials by centrifugation, the lysates were mixed […] with 3×SDS sample buffer (200 mM Tris-HCl [pH 6.8], 10% SDS, 25% glycerol, 15% β-mercaptoethanol, and 0.05% bromophenol blue), and incubated at room temperature for 20 min. Proteins cere separated by SDS-PAGE using a 7.5% or 10-20% gradient gel (Bio Graft), and transferred to a PVDF membrane (Millipore). The membranes were probed with mouse anti-GFP mAb, rabbit anti-active caspase-3 mAb, rabbit anti-hATP11C Ab, rabbit anti-α-tubulin mAb, or rat anti-mFas mAb, followed by incubation with HRP-conjugated goat anti-mouse Igs, goat anti-rabbit Igs or rabbit anti-rat Igs (Dako). The peroxidase activity was detected by the Western Lightning-ECL system (PerkinElmer).

ATP11C^GT = assay: Internalization of NBD lipids (flippase activity), flow cytometry; assay type: cell-based, human; conditions: KBM7-derived ATP11C^GT cells, 20 min with NBD-PS with or without vanadate, MFI
Method: FIG. 2D Requirement of ATP11C and CDC50A for flippase activity (D), KBM7, ATP11C^GT, and CDC50A^GT were incubated for 20 min with NBD-PS with or without an ATPase inhibitor vanadate, and analyzed by flow cytometry. MFI was plotted (n=3).
Cells (2×10^6) were incubated with 1.5 μM NBD-PS, NBD-PE, or NBD-PC at 25° C. for 15-20 min in 600 μl of HBSS containing 1 mM MgCl2 and 2.5 mM CaCl2. After incubation, the cells were collected by centrifugation, resuspended in HBSS containing 5 mg/ml fatty-acid-free BSA, and analyzed by a FACSAria II. To determine the scramblase activity, 1.5×10^6 cells were incubated at 25° C. for 4 min with 0.5 μM NBD-PC.

CDC50A^ED29 = assay: In vitro phagocytosis assay: thio-pMac engulfment of pHrodo-labeled cells; assay type: cell-based, mouse; conditions: 2 h incubation, 4 μg/ml MFG-E8 D89E
Method: FIG. 6A Engulfment of PtdSer-exposing viable cells (A). Thio-pMacs were incubated for 2 h with pHrodo-labeled W3-Ildm, CDC50A^ED29, its hCDC50A transformant (CDC50A^ED29-hCDC50A), or W3-D430G-L in the presence or absence of 4 μg/ml of MFG-E8 D89E, and analyzed by FACS.
To prepare thioglycollate-elicited peritoneal macrophages (thio-pMacs), female C57BL/6J mice at 7-12 weeks of age were injected intraperitonealiy with 60 mg of thioglycollate (Sigma-Aldrich), and peritoneal macrophages were collected 4 days later. Phagocytosis was assayed by following the transport of pHrodo-stained prey into macrophage lysosomes (50, 51). In brief, 5×10^5 thio-pMacs were grown overnight in 12-well plates (Corning). Growing or apoptotic cells (2.0×10^7) were washed with PBS and incubated with 40 ng/ml pHrodo for 10 min at room temperature. After stopping the reaction with 2 ml FCS, the cells were washed with IMDM containing 10% FCS, added to the macrophages in the medium containing 1% methyl cellulose (Sigma-Aldrich), spun at 500×g for 4 min at room temperature using a swinging rotor, and incubated at 37° C. The macrophages were detached from the plate by treatment with 0.25% trypsin, stained with APC-conjugated rat anti-mouse Mac1, suspended in 20 mM CHES-NaOH buffer (pH 9.0) containing 150 mM NaCl, 2% PCS, and 200 nM Sytox blue, and analyzed by flow cytometry using the FACSCanto II. […]

CC(C)[C@H](NC(=O)c1ccc2ccccc2n1)C(=O)N[C@@H](CC(=O)O)C(=O)COc1c(F)cccc1F [Q-VD-OPh]
FasL-caused shift in ATP11C's mobility (from 120 to 50 kDa) (ATP11C): prevented

[O]=[V]([O-])([O-])[O-] [orthovanadate]
incorporation of phospholipids in ATP11C^GT (ATP11C^GT): inhibited

B1: D89E mutant of MFG-E8: D89E mutant of MFG-E8, which masks PtdSer; produced in HEK293T cells (protein, UniProt P21956 23-463, looked up, variant D89E)
Lactadherin: ASGDFCDSSLCLNGGTCLTGQDNDIYCLCPEGFTGLVCNETERGPCSPNPCYNDAKCLVTLDTQRGEIFTEYICQCPVGYSGIHCETETNYYNLDGEYMFTTAVPNTAVPTPAPTPDLSNNLASRCSTQLGMEGGAIADSQISASSVYMGFMGLQRWGPELARLYRTGIVNAWTASNYDSKPWIQVNLLRKMRVSGVMTQGASRAGRAEYLKTFKVAYSLDGRKFEFIQDESGGDKEFLGNLDNNSLKVNMFNPTLEAQYIKLYPVSCHRGCTLRFELLGCELHGCSEPLGLKNNTIPDSQMSASSSYKTWNLRAFGWYPHLGRLDNQGKINAWTAQSNSAKEWLQVDLGTQRQVTGIITQGARDFGHIQYVASYKVAHSDDGVQWTVYEEQGSSKVFQGNLDNNSHKKNIFEKPFMARYVRVLPVSWHNRITLRLELLGC
engulfment of CDC50A^ED29 by thio-pMacs (CDC50A^ED29): inhibited
